Source: US20120107277A1, “USE OF THE COMBINATION OF TERIFLUNOMIDE AND INTERFERON BETA FOR TREATING MULTIPLE SCLEROSIS” (SANOFI-AVENTIS U.S LLC, priority 2009, published 2012)

Assays:
Assay type in all cases: in vivo, human
[1] = tested on: relapsing-remitting multiple sclerosis patient; experiment: MS relapse, 48-week double-blind treatment period (Example 2)
Protocol: (§1) A placebo-controlled, double-blinded, randomized, 3-parallel group stratified study was conducted in relapsing-remitting multiple sclerosis patient who were concurrently on a stable dose of interferon beta. The dose level of interferon beta was defined as follows: • Low dose: AVONEX® (interferon beta-1a) 30 mcg once a week intramuscularly, or REBIF® (interferon beta-1a) 22 mcg three times per week subcutaneously. • High dose: REBIF® 44 mcg three times per week subcutaneously, or BETASERON® (interferon beta-1b) 0.25 mg every other day subcutaneously.
(§2) Design/Methods: 86 of the 116 patients that were randomized to treatment (placebo: 41; 7 mg: 37; 14 mg: 38) for the first 6-months in Example 1 completed this 6-month period and accepted to continue medication for an additional 6-month period (placebo: 31, 7 mg: 28, 14 mg: 27). Safety was evaluated from TEAE, physical exam (every 6 weeks), laboratory data (every 6 weeks), ECG (at the close-out visit), pancreatic ultrasound (at the close-out visit) and brain MRI (at the close-out visit). Relapses were recorded and EDSS was performed every 6-weeks. Annualized relapse rates (ARR) were estimated by a Poisson model adjusted to IFN strata and to geographical regions. The following results report the entire 48-week double-blind treatment period.

[2] = tested on: relapsing-remitting multiple sclerosis patient; experiment: Brain MRI Gd-enhancing T1-lesions, 24-week add-on study (Example 1); settings: for Patients with >=1 Gd-enhancing T1-lesions post-baseline, No (% of patients; free of T1-Gd lesions): 24 weeks, ITT; for Relative risk reduction in the number of T1-Gd lesions compared with placebo added to IFN-beta / Relative reduction of T1-Gd lesion volume compared to placebo: 24 week; for Relative risk reduction in the number of T1-Gd lesions compared with placebo added to IFN-beta: adjusted
Protocol: as §1
(§3) Around 40 patients were treated in each treatment group (placebo: 41, 7 mg: 37, and 14 mg: 38). A third of patients in each group were treated with low dose interferon beta 1a. […] The mean age of the study population was 40.1 years. […] The base line Expanded Disability Status Scale (EDSS) score was similar between treatment groups (around 2.5).
(§4) Safety was evaluated from Treatment Emergent Adverse Event (TEAE), physical examination and laboratory data (e.g. Liver Function Test, every 2-8 weeks), ECG and abdominal ultrasound (24-weeks). Brain MRI (magnetic resonance image) activity, including T1-gadolinium (T1-Gd) with central reading were recorded every 8-week. Relapses were recorded and EDSS was performed at 24-week.

[3] = tested on: relapsing-remitting multiple sclerosis patient; experiment: MS relapse, 24-week add-on study (Example 1); settings: 24 weeks, ITT
Protocol: as §1, §3, §4

[4] = tested on: relapsing-remitting multiple sclerosis patient; experiment: Safety (TEAE, laboratory data), 24-week add-on study (Example 1); settings: 24 weeks
Protocol: as §1, §3, §4

[5] = tested on: relapsing-remitting multiple sclerosis patient; experiment: Safety (TEAE, laboratory data), 48-week double-blind treatment period (Example 2); settings: 48 weeks
Protocol: as §1, §2

[6] = tested on: relapsing-remitting multiple sclerosis patient; experiment: Brain MRI Gd-enhancing T1-lesions, 48-week double-blind treatment period (Example 2); settings: for Patients with >=1 Gd-enhancing T1-lesions post-baseline, No (% of patients; free of T1-Gd lesions): 48 weeks, ITT; for Relative risk reduction in the number of T1-Gd lesions compared with placebo added to IFN-beta / Relative reduction of T1-Gd lesion volume compared to placebo: 48 week; for Relative risk reduction in the number of T1-Gd lesions compared with placebo added to IFN-beta: adjusted
Protocol: as §1, §2

[7] = 14 mg teriflunomide in addition to stable-dose IFN-beta, p<0.0001
[8] = 7 mg teriflunomide added to stable-dose interferon beta
[9] = 14 mg teriflunomide added to stable-dose interferon beta
[10] = 7 mg teriflunomide added to stable-dose IFN-beta
[11] = 14 mg teriflunomide added to stable-dose IFN-beta

C/C(O)=C(\C#N)C(=O)Nc1ccc(C(F)(F)F)cc1 [teriflunomide, (Z)-2-cyano-3-hydroxy-but-2-enoic acid-(4′-trifluoromethylphenyl)-amide]
Reduction in annualized relapse rate compared to IFN-beta ([1]; 7 mg teriflunomide in addition to stable-dose IFN-beta, p=0.43): 32.6%
Reduction in annualized relapse rate compared to IFN-beta ([1]; 14 mg teriflunomide in addition to stable-dose IFN-beta, p=0.11): 57.9%
Patients with >=1 Gd-enhancing T1-lesions post-baseline, No (% of patients; free of T1-Gd lesions) ([2]; 7 mg teri + IFN-β): 69.4%
Relative risk reduction in the number of T1-Gd lesions compared with placebo added to IFN-beta ([2]; 7 mg teriflunomide in addition to stable-dose IFN-beta, p=0.0009): 82.6%
Relative reduction of T1-Gd lesion volume compared to placebo ([2]; 7 mg teriflunomide in addition to stable-dose IFN-beta, p=0.1931): 67.6%
Patients with >=1 Gd-enhancing T1-lesions post-baseline, No (% of patients; free of T1-Gd lesions) ([2]; 14 mg teri + IFN-β): 81.6%
Relative risk reduction in the number of T1-Gd lesions compared with placebo added to IFN-beta [2, 7]: 84.4%
Relative reduction of T1-Gd lesion volume compared to placebo ([2]; 14 mg teriflunomide in addition to stable-dose IFN-beta, p=0.0072): 64.7%
Total number of relapses ([3]; 7 mg teri + IFN-β, 16.4 patient-years followed): 5
Total number of relapses ([3]; 14 mg teri + IFN-β, 17.3 patient-years followed): 2
Proportion of patients with ALT/SGPT greater than 3xULN [4, 8]: 0%
Proportion of patients with TEAE due to increased ALT/SGPT [4, 8]: 13.5%
Proportion of patients with TEAE potentially related to immunosuppression (white blood cell counts, infections and infestations) [4, 8]: 49%
Upper respiratory tract infections (nasopharyngitis, sinusitis), proportion of patients [4, 8]: 10.8%
Proportion of patients with ALT/SGPT greater than 3xULN [4, 9]: 5.3%
Proportion of patients with TEAE due to increased ALT/SGPT [4, 9]: 28.9%
Proportion of patients with TEAE potentially related to immunosuppression (white blood cell counts, infections and infestations) [4, 9]: 50%
Upper respiratory tract infections (nasopharyngitis, sinusitis), proportion of patients [4, 9]: 23.7%
Concomitant bilirubin increase (with ALT/SGPT increase) ([4]; all groups, 7 mg or 14 mg teriflunomide added to stable-dose interferon beta): no case
Patients with ALT increased above 3ULN without concomitant increase in bilirubin (number) [5, 10]: 1
TEAE all gastrointestinal disorders [5, 10]: 18.9%
TEAE all type of headaches [5, 10]: 5.4%
TEAE upper respiratory tract infections as a whole [5, 10]: 16.2%
TEAEs that led to treatment discontinuation (number) [5, 10]: 3
White blood cell counts decreases (number) [5, 10]: 3
Patients with ALT increased above 3ULN without concomitant increase in bilirubin (number) [5, 11]: 3
TEAE all gastrointestinal disorders [5, 11]: 31.6%
TEAE all type of headaches [5, 11]: 18.4%
TEAE upper respiratory tract infections as a whole [5, 11]: 23.7%
TEAEs that led to treatment discontinuation (number) [5, 11]: 3
White blood cell counts decreases (number) [5, 11]: 4
Patients with >=1 Gd-enhancing T1-lesions post-baseline, No (% of patients; free of T1-Gd lesions) ([6]; 7 mg teri + IFN-β): 69.4%
Relative risk reduction in the number of T1-Gd lesions compared with placebo added to IFN-beta ([6]; 7 mg teriflunomide in addition to stable-dose IFN-beta, p=0.0005): 84.6%
Relative reduction of T1-Gd lesion volume compared to placebo ([6]; 7 mg teriflunomide in addition to stable-dose IFN-beta, p=0.1104): 72.1%
Patients with >=1 Gd-enhancing T1-lesions post-baseline, No (% of patients; free of T1-Gd lesions) ([6]; 14 mg teri + IFN-β): 76.3%
Relative risk reduction in the number of T1-Gd lesions compared with placebo added to IFN-beta [6, 7]: 82.8%
Relative reduction of T1-Gd lesion volume compared to placebo ([6]; 14 mg teriflunomide in addition to stable-dose IFN-beta, p=0.0154): 70.6%
